Assay results from patent EP0338372A2, “Solubilized pro-drugs” (AMERICAN CYANAMID COMPANY, priority 1988, dated 1989).
Where two headings read alike, the source gives them in different places.

Columns and labels:
melanotic melanoma B16 = assay: Melanotic Melanoma B16 test; assay type: in vivo, BDF1 mice
L1210 leukemia cells = assay: Lymphocytic Leukemia L1210 test; assay type: in vivo, BDF1 mice
[1] = system: lymphocytic leukemia P388; assay: Lymphocytic leukemia P388 test; assay type: in vivo, BDF1 mice
solubility = details: 0.1 M phosphate buffer, pH 7.5
[2] = pH 7.5
[3] = Dose 3.25 mg/kg intraperitoneally on days 1, 5 and 9
[4] = Dose 6.25 mg/kg intraperitoneally on days 1, 5 and 9
[5] = Dose 12.5 mg/kg intraperitoneally on days 1, 5 and 9
[6] = Dose 0.39 mg/kg intraperitoneally on days 1, 5 and 9
[7] = Dose 0.78 mg/kg intraperitoneally on days 1, 5 and 9
[8] = Dose 1.56 mg/kg intraperitoneally on days 1, 5 and 9
[9] = Dose 3.12 mg/kg intraperitoneally on days 1, 5 and 9
[10] = Dose 0.19 mg/kg intraperitoneally on days 1, 5 and 9
[11] = Dose 25 mg/kg intraperitoneally on days 1, 5 and 9
[12] = Dose 50 mg/kg intraperitoneally on days 1, 5 and 9
[13] = Dose 100 mg/kg intraperitoneally on days 1, 5 and 9
[14] = Dose 200 mg/kg intraperitoneally on days 1, 5 and 9

O=C(O)CCC(=O)N1CCN=C1NN=Cc1c2ccccc2c(C=NNC2=NCCN2C(=O)CCC(=O)O)c2ccccc12 [2,2[9,10-Anthracenediylbis(methylidene-1-hydrazinyl-2-ylidene)]bis[4,5-dihydro-gamma-oxo-1H-imidazole-1-butanoic Acid]]
Median Survival (melanotic melanoma B16; [3]): >60 days | T/C x 100 % (melanotic melanoma B16; [3]): >273% | Median Survival (melanotic melanoma B16; [4]): >60 days | T/C x 100 % (melanotic melanoma B16; [4]): >273% | Median Survival (melanotic melanoma B16; [5]): 55.5 days | T/C x 100 % (melanotic melanoma B16; [5]): 252% | Median Survival (L1210 leukemia cells; [6]): 11.5 days | T/C x 100 % (L1210 leukemia cells; [6]): 135% | Median Survival (L1210 leukemia cells; [7]): 11.2 days | T/C x 100 % (L1210 leukemia cells; [7]): 132% | Median Survival (L1210 leukemia cells; [8]): 12 days | T/C x 100 % (L1210 leukemia cells; [8]): 141% | Median Survival (L1210 leukemia cells; [9]): 12.3 days | T/C x 100 % (L1210 leukemia cells; [9]): 145% | Median Survival (L1210 leukemia cells; [4]): 12.2 days | T/C x 100 % (L1210 leukemia cells; [4]): 144% | Median Survival (L1210 leukemia cells; [5]): 13.2 days | T/C x 100 % (L1210 leukemia cells; [5]): 155% | Median Survival [1, 10]: 15 days | T/C x 100 % [1, 10]: 150% | Median Survival [1, 6]: 15.5 days | T/C x 100 % [1, 6]: 155% | Median Survival [1, 7]: 17 days | T/C x 100 % [1, 7]: 170% | Median Survival [1, 8]: 17 days | T/C x 100 % [1, 8]: 170% | Median Survival [1, 9]: 19 days | T/C x 100 % [1, 9]: 190% | Median Survival [1, 4]: 19 days | T/C x 100 % [1, 4]: 190% | Median Survival [1, 5]: 23 days | T/C x 100 % [1, 5]: 230%

CC(=O)N1CCN=C1N(N=Cc1c2ccccc2c(C=NN(C(C)=O)C2=NCCN2)c2ccccc12)C(C)=O [2-[[10-[[Acetyl(1-acetyl-4,5-dihydro-1H-imidazol-2-yl)hydrazono]methyl]-9-anthracenyl]methylene]-1-(4,5-dihydro-1H-imidazol-2-yl)hydrazide of Acetic Acid]
Median Survival (melanotic melanoma B16; [5]): 28 days | T/C x 100 % (melanotic melanoma B16; [5]): 127% | Median Survival (melanotic melanoma B16; [11]): 30 days | T/C x 100 % (melanotic melanoma B16; [11]): 136% | Median Survival (melanotic melanoma B16; [12]): 29.5 days | T/C x 100 % (melanotic melanoma B16; [12]): 134% | Median Survival (melanotic melanoma B16; [13]): 37 days | T/C x 100 % (melanotic melanoma B16; [13]): 168% | Median Survival (melanotic melanoma B16; [14]): 40 days | T/C x 100 % (melanotic melanoma B16; [14]): 182% | Median Survival [1, 4]: 12.5 days | T/C x 100 % [1, 4]: 125% | Median Survival [1, 5]: 13 days | T/C x 100 % [1, 5]: 130% | Median Survival [1, 11]: 15.5 days | T/C x 100 % [1, 11]: 155% | Median Survival [1, 12]: 16.5 days | T/C x 100 % [1, 12]: 165% | Median Survival [1, 13]: 17 days | T/C x 100 % [1, 13]: 170% | Median Survival [1, 14]: 17.5 days | T/C x 100 % [1, 14]: 175%

O=C(O)c1cn(C2CC2)c2cc(N3CCN(P(=O)(O)O)CC3)c(F)cc2c1=O [Example 47, t-Cyclopropyl-6-fluoro-1,4-dihydro-4-oxo-7-(4-phosphono-1-piperazinyl)-3-quinolinecarboxylic Acid]
solubility (solubility): soluble

CCOP(=O)(OCC)N1CCN(c2cc3c(cc2F)c(=O)c(C(=O)OCCOC)cn3C2CC2)CC1 [Example 49, 1-Cycfopropyl-7-[4-(diethoxyphosphinyl)-1-piperazinyl]-6-fluoro-1,4-dihydro-4-oxo-3-quinolinecarboxylic Acid, 2-Methoxyethyl Ester]
solubility [2]: easily soluble
